Experimental data as given in patent publication US8022180B2, “Method for preventing and treating Alzheimer's disease” (Affiris Forschungs-und Entwicklungs GmbH, priority 2004, dated 2011).
“Also recorded” adds a separate entry of the source. Where no end group is shown, it is not given here. [ ]: non-standard residue; d: D form. Tle = CC(C)(C)[C@H](N)C(=O)O

Experiments:
[1] = tested on: DAEFRH (SEQ ID NO: 26)-specific mAb; assay: ELISA with peptide libraries (detection by biotinylated DAEFRH-specific mAb); type: binding, mice; settings: mimotopes from libraries 1-3
Excerpt: (§1) Mice are vaccinated with the 6mer peptide DAEFRH (SEQ ID NO: 26) (natural N-terminal Aβ42 sequence) linked to the protein bovine serum albumin BSA (to make use of the hapten-carrier-effect), emulsified in CFA (first injection) and IFA (booster injections). DAEFRH (SEQ ID NO: 26)-peptide-specific, antibody-producing hybridomas are detected by ELISA (DAEFRH (SEQ ID NO: 26)-peptide-coated ELISA plates).
As mentioned above, peptide libraries 1, 2, and 3 are generated with an Applied Biosystems 431A peptide synthesizer following classical Fmoc-chemistry. The commercially available peptide library 4 is generated according to the manufacturer's description (see above and under www.mimotopes.com). The 90 peptides are C-terminally linked to a pin.
The ELISA with each of the peptide libraries have been carried out following standard protocols:
The peptide library is dissolved in 100% DMSO (final concentration 10 mg/ml).
The peptide solution is further diluted in PBS.
The peptide mixture is coated overnight (4° C.) onto ELISA plates (Nunc Maxisorp, Germany), starting with 500 μg/well, and titrated to 100 ng/well.
The plates are washed 3× times with PBS/Tween 20 (0.1% v/v).
The plates are blocked with PBS/BSA (2 h at room temperature).
The plates are washed 3× times with PBS/Tween.
The plates are incubated with biotinylated DAEFRH (SEQ ID NO: 26)-specific mAb (10 μg/ml in PBS) for 4 h at room temperature.
The plates are incubated with streptavidin-horseradish-peroxidase (30 min at room temperature).
The plates are washed 5× times with PBS/Tween.
The plates are incubated with ABTS+H2O2 (0.1% w/v; 10 to 45 min) and the reaction is stopped with citric acid followed by photometric evaluation (wavelength 405 nm).

[2] = tested on: monoclonal antibody specific for the natural N-terminal Aβ42 sequence DAEFRH; assay: Inhibition assay: mimotope peptides compete with plate-bound DAEFRH-BSA for recognition by the biotinylated monoclonal antibody (ELISA); type: binding, mice; design: key to inhibition (s/m/—): s: strong inhibition; m: moderate inhibition; —: no inhibition; settings: for inhibition of epitope recognition by the monoclonal antibody (in words): FIGS. 2-9
Excerpt: 1.: Generation of Monoclonal Antibodies (mAb) to Detect Aβ42-Derived Peptide Species with Free N-Terminus (Free Aspartic Acid at the N-Terminus)
as §1
(§2) FIGS. 2 and 3 describe the results of inhibition assays performed with mimotope peptides included in and obtained from the 5 libraries (as described). The mimotope peptides compete with the original epitope for recognition by the monoclonal antibody. Original epitope and mimotope peptides contain an additional C at the C-terminus for coupling to a protein carrier (if desired).
(§3) After blocking with PBS/BSA 1% (200 μl/well, 12 h, 4° C.), the plates are washed 3× times with PBS/Tween. Then, biotinylated monoclonal antibody (1:2000, 50 μl/well) and peptides (50 μl/well) at 50, 5, 0.5, 0.05, 0.005, and 0.0005 μg/ml are added for 20 min. at 37° C. The plates are washed 3× times with PBS/Tween and are incubated with horseradish peroxidase (HRP)-labeled streptavidin (100 μl/well, 30 min, RT). The plates are washed 5× times with PBS/Tween and are incubated with ABTS+H2O2 (0.1% w/v, 10 to 45 min) and the reaction is stopped with citric acid followed by photometric evaluation (wavelength 405 nm).
as §2, with “4” for “2”, “5” for “3”, “C-terminus (position 7)” for “C-terminus”
as §3, with “different concentrations” for “50, 5, 0.5, 0.05, 0.005, and 0.0005 μg/ml”
as §2, with “6 to 8” for “2 and 3”, “2” for “5”, “described above).” for “described).”, “C-terminus (position 7 or position 8, respectively)” for “C-terminus”

Compound | detection by the monoclonal antibody [1] | further results
ELDYHR | can be detected by the monoclonal antibody | 
DVDYHR | can be detected by the monoclonal antibody | 
DIDYHR | can be detected by the monoclonal antibody | 
DLDYHR | can be detected by the monoclonal antibody | 
EVDYHR | can be detected by the monoclonal antibody | 
EIDYHR | can be detected by the monoclonal antibody | 
DVDYRR | can be detected by the monoclonal antibody | 
DIDYRR | can be detected by the monoclonal antibody | 
DLDYRR | can be detected by the monoclonal antibody | 
DAEFRH (not fully specified (C-terminus); listed as Homo sapiens) [Peptide 1737, reference compound] |  | inhibition of epitope recognition by the monoclonal antibody (in words) [2]: inhibits recognition by the monoclonal antibody; also recorded: can successfully compete
DKE(tBuGly)R (DKE[Tle]R) [Peptide 4061] |  | inhibition of epitope recognition by the monoclonal antibody (in words) [2]: not inhibitory at the concentrations tested; inhibition (s/m/—) ([2]; peptides of the new screening round and 5mers with non natural amino acids): —
N=C(N)NCCC[C@H](NC(=O)[C@H](Cc1ccccc1)NC(=O)[C@H](CCC(=O)O)NC(=O)[C@H](Cc1ccc(O)cc1)NC(=O)[C@@H](N)CCC(=O)O)C(=O)NCC(=O)N[C@@H](CS)C(=O)O [Peptide 1239, EYEFRG] |  | inhibition of epitope recognition by the monoclonal antibody (in words) [2]: block epitope recognition; IC50 (inhibition of monoclonal antibody binding to the original epitope) ([2]; competition ELISA, plate-bound DAEFRH-BSA, peptides 20 min at 37° C.): more than 0.5 μg/ml; Inhibitory capacity of mimotopes ([2]; summary Tables 1 and 2, in words): intermediate
